Broadly, the IC50 is the point on the concentration scale where inhibition reaches its midpoint.

From patent US20240246943A1, “MULTIFACETED APPROACH TO NOVEL INTERLEUKIN-6 INHIBITORS” (UNIVERSITY OF FLORIDA RESEARCH FOUNDATION, INCORPORATED, priority 2021, published 2024) come the findings set out here.

Read-outs that look alike come from different tables or passages of the source.

Common to all, as to format: cell-based
In one assay the test system is induced p-STAT1. Description: Selectivity study, western blot, T47D cells, IFN stimulation. As to conditions: T47D breast cancer cells, compound, then cytokine. As for the experimental part: (§1) Cells were harvested and lysed in cold radioimmunoprecipitation assay (RIPA) lysis buffer containing proteasome inhibitor cocktail and phosphatase inhibitor cocktail. The protein concentrations were determined using the BCA Protein Assay kit. After adding the loading buffer and boiling at 95° C. for 10 minutes, equivalent amounts of proteins were loaded on and separated by SDS-PAGE, and then were transferred to PVDF membranes. Membranes were probed with primary antibodies (1:1000) against gp130 and GAPDH. Membranes were analyzed using Enhanced Chemiluminescence Plus reagents and either scanned with the Storm Scanner (Amersham Pharmacia Biotech, Inc., Piscataway, NJ) or imaged with ChemiDoc MP imaging system (Bio-Rad, Hercules, CA).
(§2) Inhibition of downstream STAT3 phosphorylation was performed. T47D breast cancer cells, which lack endogenous IL-6, were treated with LLM418-MCBu for 2 hours. Then, cytokine was administered for 30 minutes (IL-6, INF, LIF, or OSM). Western blot conducted afterwards to assess dose-dependent inhibition of IL-6 signaling (or lack thereof) (FIG. 5).

The test system of assay [1] is MDA-MB-231 Bone Metastatic breast cancer cells. Description: MTT cell viability assay, MDA-MB-231 Bone Metastatic. To be noted: Homo sapiens, 72 hours. On the procedure: (§3) Cell viability of MDA-MB-231 breast cancer cells was evaluated by using the MTT assay in triple replicates in one experiment and repeated for three times (FIG. 3). […] The cells were incubated at 37° C. for a period of 24 hours. Escalating concentrations of IL-6/gp130 inhibitors (e.g., compounds of Formula (A), (B), (C), (D), (E), or (F) including LLM-418, bazedoxifene, LS-28-3, and COMP-D (LS-101-D)) were added in triplicate to the plates in the presence of 10% FBS. After incubation for 72 hours (unless otherwise noted), a stock solution of MTT (0.5 mg/ml) was then added to each well containing the treated cells, followed by incubation at 37° C. for 3 h. After removal of medium, the MTT dye was dissolved with spectrophotometric grade DMSO and the absorbance was read at 570 nm. The IC50 value is determined by interpolation based on the absorbance value halfway between positive and negative controls.
A general note: Formazan colour is commonly taken as a measure of viable cells.

Assay [2] has as its system MDA-MB-231 breast cancer cells. Description: MTT cell viability assay, MDA-MB-231. To be noted: Homo sapiens, MDA-MB-231, MTT, 72 hours, Inactive = no measurable activity at 20 μM. On the procedure: as §3
Assay [3] relates to SUM159 breast cancer cells. Description: MTT cell viability assay, SUM159. To be noted: 72 hours, Inactive = no measurable activity at 20 μM. On the procedure: Cell viability of MDA-MB-231 breast cancer cells was evaluated by using the MTT assay in triple replicates in one experiment and repeated for three times (FIG. 3). MDA-MB-231 SUM159, SUM159 […], MDA-MB-231 breast cancer cells or SUM149 or HCC1937 BRCA mutant breast cancer cells were seeded in 96-well plates at a density of 3,000 cells per well. The cells were incubated at 37° C. for a period of 24 hours. Escalating concentrations of IL-6/gp130 inhibitors (e.g., compounds of Formula (A), (B), (C), (D), (E), or (F) including LLM-418, bazedoxifene, LS-28-3, and COMP-D (LS-101-D)) were added in triplicate to the plates in the presence of 10% FBS. After incubation for 72 hours (unless otherwise noted), a stock solution of MTT (0.5 mg/ml) was then added to each well containing the treated cells, followed by incubation at 37° C. for 3 h. After removal of medium, the MTT dye was dissolved with spectrophotometric grade DMSO and the absorbance was read at 570 nm. The IC50 value is determined by interpolation based on the absorbance value halfway between positive and negative controls.

For the next assay, the system named is IL-6 induced p-STAT3. Description: Selectivity study, western blot, T47D cells, IL-6 stimulation. As to conditions: T47D breast cancer cells, compound 2 hours, then cytokine 30 minutes. On the procedure: as §1, §2
Assay [4] concerns SUM159 gp130ko breast cancer cells. In words: MTT cell viability assay, SUM159 gp130ko. As to conditions: SUM159, Table 1 batch studies, 72 hours, read-out: IC50 Values in Breast Cancer Cell Lines, SUM159 gp130ko. On the procedure:
as §3

The subject of a further assay is pSTAT3 in TNBC cell line. Description: pSTAT3 inhibition in TNBC cell line (FIG. 8). To be noted: compound, then cytokine. On the procedure:
(§4) FIG. 8 depicts TNBC, BRCA-mutant, and T47D cells stimulated with LLM418-MCBU, then cytokine.
as §1

Assay [5] has as its system HCC1937 BRCA-mutant TNBC cells. Description: Cell viability, combination with PARP inhibitor talazoparib (FIG. 9). As to conditions: LLM418-MCBU in combination with PARP inhibitor talazoparib. The text has this: FIG. 9 depicts cell viability of HCC1937 BRCA-mutant TNBC cells treated with LLM418-MCBU and PARP inhibitor talazoparib.
A further assay has as its system pSTAT3 in T47D cell line. Description: pSTAT3 inhibition in T47D cell line (FIG. 8). To be noted: compound, then cytokine. As for the experimental part:
as §4, §1

Assay [6] relates to pSTAT3 in BRCA-mutant cell line. Description: pSTAT3 inhibition in BRCA-mutant cell line (FIG. 8). As to conditions: compound, then cytokine. On the procedure: as §4, §1
Another assay relates to LIF induced p-STAT3. In words: Selectivity study, western blot, T47D cells, LIF stimulation. As to conditions: T47D breast cancer cells, compound, then cytokine. On the procedure: as §1, §2
The mark [7] stands for this setting: MDA-MB-231, Table 3 batch studies (independent from Table 1), read-out: MDA-MB-231 Bone Metastatic IC50.
Where [8] appears, read: Table 1 batch studies, read-out: IC50 Values in Breast Cancer Cell Lines, MDA-MB-231.
Where [9] appears, read: Table 3 batch studies (independent from Table 1), read-out: MDA-MB-231 IC50.
The mark [10] stands for this setting: SUM159, Table 1 batch studies, read-out: IC50 Values in Breast Cancer Cell Lines, SUM159.
The mark [11] stands for this setting: SUM159, Table 3 batch studies (independent from Table 1), read-out: SUM159 IC50.
[12] abbreviates: MDA-MB-231, Table 1 batch studies, read-out: IC50 Values in Breast Cancer Cell Lines, MDA-MB-231 Bone Metastatic.

In the case of `CC(C)n1ccc(-c2ccccc2NC(=O)c2ccc(OCCN3CCCCC3)cc2)n1` [LLM418-iPR, N-(2-(1-isopropyl-1H-pyrazol-3-yl)phenyl)-4-(2-(piperidin-1-yl)ethoxy)benzamide], the “Inhibition of IFN-7 induced p-STAT1” value in the assay with induced p-STAT1 was “inhibit both IL-6 induced p-STAT3 and IFN-7 induced p-STAT1”. Further, the concentration for half-maximal inhibition (IC50) in assay [1] (setting [7]) was found to be 29.7 µM; in [2] (setting [8]), 19 µM; in assay [2] (setting [9]), 19 µM; in assay [3] (setting [10]), 9.1 µM; in assay [3] (setting [11]), 9.1 µM; in assay [4] it was 12.1 µM. Moreover, in the assay with IL-6 induced p-STAT3, the “Inhibition of IL-6 induced p-STAT3” value is “inhibit both IL-6 induced p-STAT3 and IFN-7 induced p-STAT1”.

For the compound `CCn1ccc(-c2ccccc2NC(=O)c2ccc(OCCN3CCCCC3)cc2)n1` [LLM418-Et, N-(2-(1-ethyl-1H-pyrazol-3-yl)phenyl)-4-(2-(piperidin-1-yl)ethoxy)benzamide], in the assay with induced p-STAT1, the “Inhibition of IFN-7 induced p-STAT1” value was “inhibit both IL-6 induced p-STAT3 and IFN-7 induced p-STAT1”. The IC50 in assay [1] (setting [12]) was found to be 16.8 µM; in assay [1] (setting [7]) it was 16.8 µM; in assay [2] (setting [8]), 17.5 µM; in assay [2] (setting [9]) it was 17.5 µM; in [3] (setting [10]), 13.5 µM; in [3] (setting [11]), 17.4 µM. Also, the IC50 in [4] was 18.2 µM. The “Inhibition of IL-6 induced p-STAT3” value with IL-6 induced p-STAT3 was “inhibit both IL-6 induced p-STAT3 and IFN-7 induced p-STAT1”.

With `O=C(Nc1ccccc1-c1ccn(CC2CCC2)n1)c1ccc(OCCN2CCCCC2)cc1` [LLM418-MCBu, N-(2-(1-(cyclobutylmethyl)-1H-pyrazol-3-yl)phenyl)-4-(2-(piperidin-1-yl)ethoxy)benzamide], the IC50 was 7.3 µM in assay [1] (setting [12]); 7.3 µM in assay [1] (setting [7]); 18.5 µM in [2] (setting [8]); 18.5 µM in assay [2] (setting [9]); 10.5 µM in [3] (setting [10]); 10.5 µM in assay [3] (setting [11]). Further, in assay [4], the IC50 turned out to be 13.9 µM. Further, in the assay with pSTAT3 in TNBC cell line, the “Inhibition of pSTAT3, TNBC cell line” value was “inhibits pSTAT3”. Besides, the “CI (synergy in inhibiting cell viability)” value in assay [5] is less than 1.0. In addition, the “Inhibition of pSTAT3, T47D cell line” value in the assay on pSTAT3 in T47D cell line is listed as “inhibits pSTAT3”. Further, the figures for the “Inhibition of IL-6 induced p-STAT3” value in the assay with IL-6 induced p-STAT3 and with IL-6 induced p-STAT3 (listed as LLM418-MCBU) were “inhibited IL-6 selectively in a dose-dependent manner” and “selectively inhibits IL-6 induced p-STAT3”, respectively. Also, in assay [6], the “Inhibition of pSTAT3, BRCA-mutant cell line” value is given as “inhibits pSTAT3”.

With `O=C(Nc1ccccc1-c1ccn(C2CCC2)n1)c1ccc(OCCN2CCCCC2)cc1` [LLM418-CBU, N-(2-(1-cyclobutyl-1H-pyrazol-3-yl)phenyl)-4-(2-(piperidin-1-yl)ethoxy)benzamide], the “Inhibition of IFN-7 induced p-STAT1” value with induced p-STAT1 is “also inhibits IFN-7 induced p-STAT1”. Moreover, the IC50 in [1] (setting [12]) amounted to 11.8 µM; in assay [1] (setting [7]), 21.1 µM; in assay [2] (setting [8]), 49.7 µM; in assay [2] (setting [9]), 30.1 µM; in assay [3] (setting [10]), 5.9 µM; in [3] (setting [11]) it was 15.1 µM. Further, the IC50 in [4] was 16.1 µM. For the same compound, the “Inhibition of LIF induced p-STAT3” value in the assay with LIF induced p-STAT3 is “also inhibits”. Besides, in the assay with IL-6 induced p-STAT3, the “Inhibition of IL-6 induced p-STAT3” value is reported as “inhibits IL-6 induced p-STAT3”.
